Measurements as given in US20230247987A1, “THE USE OF SAFENERS TO IMPROVE TOLERANCE OF ACCASE TOLERANT SORGHUM CROP TO HERBICIDES” (Adama Agan Ltd., priority 2020, published 2023).

Experiments:
Assay type in all cases: in vivo
[1] = test system: shattercane (Sorghum bicolor); assay: Field trial: control of shattercane; details: after 7 days
[2] = test system: Setaria viridis; assay: Field trials: control of Setaria viridis
[3] = test system: Panicum miliace; assay: Field trials: control of Panicum miliace
[4] = test system: ACCase tolerant sorghum variety BTX430-CHR-ACC1; assay: Greenhouse crop response of ACCase tolerant sorghum to quizalofop with and without isoxadifen; details: FIG. 1, X-rates 0.5-8 (Quizalofop 39-616 g/ha, Isoxadifen 27-431 g/ha), rated approximately 14 days after application, versus quizalofop without isoxadifen
From the text: Seeds of the proprietary ACCase tolerant sorghum variety BTX430-CHR-ACC1 (ATCC deposit PTA-125106, mutation W1999C) were supplied by S&W. BTX430-CHR-ACC1 sorghum cultivar contains a single mutation in the ACCase gene that confers ACCase tolerance: Tryptophan to Cysteine amino acid substitution at an amino acid position 1999 (W1999C; SEQ ID NO: 7 as disclosed in WO 2018/222715, namely the sequence denoted herein by SEQ ID NO: 6) aligning with the amino acid sequence of SEQ ID NO: 6 (as disclosed in WO 2018/222715, namely the sequence denoted herein by SEQ ID NO: 5). The mutation provides tolerance to quizalofop.
ACCase tolerant Sorghum seeds (S & W Line ID: T19-90001) were planted in commercial greenhouse soil mix in ˜8-cm square pots.
Plants were started in a greenhouse and placed outdoors at ambient air temperatures when temperatures were conducive to sorghum growth.
Soil fertility and moisture were provided on an as needed basis.
Plants were grown to heights of 10 to 13, 15-18, 20 to 25 and 30 to 35 cm for treatment.
Safener was premixed in the ADM.7000.H.2.A formulation.
Sorghum plants were subjected to “Standard Weed Science Percentage Rankings” where 0=no effect of the herbicide and 100%=complete plant death. Injury represents discoloration, stunting and malformation. Ratings were taken approximately 14 days after herbicide application. […]

[5] = Table 4 trial, after 33 days, X-rate 0.5: Quizalofop 5 oz/a, Isoxadifen 5 oz/a or none
[6] = Table 4 trial, after 33 days, X-rate 1: Quizalofop 10 oz/a, Isoxadifen 10 oz/a or none
[7] = Table 4 trial, after 33 days, X-rate 2: Quizalofop 20 oz/a, Isoxadifen 20 oz/a or none
[8] = Table 5 second trial, after 27 days, X-rate 0.5: Quizalofop 5 oz/a, Isoxadifen 5 oz/a or none
[9] = Table 5 second trial, after 27 days, X-rate 1: Quizalofop 10 oz/a, Isoxadifen 10 oz/a or none
[10] = Table 5 second trial, after 27 days, X-rate 2: Quizalofop 20 oz/a, Isoxadifen 20 oz/a or none

Compound	% control Shattercane ([1]; X-rate 0.5: Quizalofop 5 oz/a, Isoxadifen 5 oz/a or none)	% control Shattercane ([1]; X-rate 1: Quizalofop 10 oz/a, Isoxadifen 10 oz/a or none)	% control Shattercane ([1]; X-rate 2: Quizalofop 20 oz/a, Isoxadifen 20 oz/a or none)	% control Setaria viridis [2, 5]	% control Setaria viridis [2, 6]	% control Setaria viridis [2, 7]	% control Setaria viridis [2, 8]	% control Setaria viridis [2, 9]	% control Setaria viridis [2, 10]	% control Panicum miliace [3, 5]	% control Panicum miliace [3, 6]	% control Panicum miliace [3, 7]	% control Panicum miliace [3, 8]	% control Panicum miliace [3, 9]	% control Panicum miliace [3, 10]	crop response (percentage of sorghum crop displaying phytotoxicity) against the X-Rate [4]
CCOC(=O)[C@@H](C)Oc1ccc(Oc2cnc3cc(Cl)ccc3n2)cc1 [Quizalofop, quizalofop P-ethyl]	96.8%	96.8%	99%	100%	100%	100%	100%	100%	100%	100%	100%	100%	100%	100%	100%	
O=C(O)C1=NOC(c2ccccc2)(c2ccccc2)C1 [isoxadifen]																significant decrease of crop response
